Results: paper PMC12055641, “The Study of Antistaphylococcal Potential of Omiganan and Retro-Omiganan Under Flow Conditions” (Probiotics and Antimicrobial Proteins, 2024)
No end group written: not given here.

Legend:
S. aureus ATCC 25923 [1] = assay: Membrane depolarization DiSC3(5); type: cell-based, Staphylococcus aureus; details: 2 × MIC, DiSC3(5) fluorescence
Method: (§1) Membrane depolarization activities of omiganan and retro-omiganan were evaluated using DiSC3(5) (3,3′-dipropylthiadicarbocyanine iodide; Thermo Fischer Scientific, Invitrogen™). The S. aureus ATCC 25923 and S. aureus ATCC 33591 strains were grown at 37 °C up to a mid-log phase (approx. 4 h) in the Mueller–Hinton broth. The cultures were centrifuged (3500 rpm, 7 min) and washed with a 20 mM glucose solution in HEPES buffer (5 mM, pH 7.2). The cells were resuspended in a 5 mM HEPES buffer supplemented with 20 mM glucose and 100 mM KCl (pH 7.2) to an OD 0.05 at 600 nm. The final concentration of the dye was 0.4 μM. The fluorescence was monitored at 20 °C (λex 620 nm and λem 678 nm) with Fluoroskan Ascent FL (Thermo Fisher Scientific) fluorometer. […] A HEPES solution with glucose was used as a negative control. The measurements were conducted twice to ensure the reproducibility.

[2] = tested on: S. aureus ATCC 33591 (MRSA); assay: Membrane depolarization DiSC3(5); type: cell-based, Staphylococcus aureus; details: 2 × MIC, DiSC3(5) fluorescence
Method: as §1

S. aureus ATCC 25923 [3] = assay: microbe, parasite or virus in culture
Procedure, shortened: (§2)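 MICs by CLSI broth microdilution in Mueller–Hinton broth (Ca²⁺ 50 mg/L added for daptomycin), read as lowest concentration inhibiting visible growth. MBEC on 24 h biofilms (0.5 × 10^7 CFU/mL, 37 °C) and MBIC with compound present during 24 h growth, both read by resazurin; triplicates.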

[4] = tested on: S. aureus ATCC 33591 (MRSA); assay: microbe, parasite or virus in culture
Procedure, shortened: as §2

[5] = S. aureus ATCC 33591 (MRSA) biofilm treated under flow with Omiganan (half MBEC) for 24 h
[6] = S. aureus ATCC 33591 (MRSA) biofilm treated under flow with Omiganan (half MBEC) for 48 h
[7] = S. aureus ATCC 33591 (MRSA) biofilm treated under flow with Omiganan (half MBEC) for 72 h
[8] = S. aureus ATCC 33591 (MRSA) biofilm treated under flow with Retro-Omiganan (half MBEC) for 24 h
[9] = S. aureus ATCC 33591 (MRSA) biofilm treated under flow with Retro-Omiganan (half MBEC) for 48 h
[10] = S. aureus ATCC 33591 (MRSA) biofilm treated under flow with Retro-Omiganan (half MBEC) for 72 h
[11] = S. aureus ATCC 33591 (MRSA), time 0 h (baseline, before peptide exposure)

ILRWPWWPWRRK-NH2 [Omiganan]
membrane depolarization (S. aureus ATCC 25923 [1]): cause depolarization of S. aureus membranes immediately after the addition
membrane depolarization [2]: cause depolarization of S. aureus membranes immediately after the addition
MIC (S. aureus ATCC 25923 [3]; ATCC 25923, 0 h): 16.0 µg/mL
MIC (S. aureus ATCC 25923 [3]; ATCC 25923, 24 h): 8.0 µg/mL
MIC (S. aureus ATCC 25923 [3]; ATCC 25923, 48 h): 8.0 µg/mL
MIC (S. aureus ATCC 25923 [3]; ATCC 25923, 72 h): 8.0 µg/mL
MIC [4, 5]: 8.0 µg/mL
MIC [4, 6]: 8.0 µg/mL
MIC [4, 7]: 8.0 µg/mL
MIC [4, 8]: 8.0 µg/mL
MIC [4, 9]: 8.0 µg/mL
MIC [4, 10]: 8.0 µg/mL
MIC [4, 11]: 16.0 µg/mL

KRRWPWWPWRLI-NH2 [Retro-Omiganan]
membrane depolarization (S. aureus ATCC 25923 [1]): cause depolarization of S. aureus membranes immediately after the addition
membrane depolarization [2]: cause depolarization of S. aureus membranes immediately after the addition
MIC (S. aureus ATCC 25923 [3]; S. aureus 25923, time 0 h (baseline, before peptide exposure)): 8.0 µg/mL
MIC (S. aureus ATCC 25923 [3]; S. aureus 25923 biofilm treated under flow with Omiganan (half MBEC) for 24 h): 8.0 µg/mL
MIC (S. aureus ATCC 25923 [3]; S. aureus 25923 biofilm treated under flow with Omiganan (half MBEC) for 48 h): 8.0 µg/mL
MIC (S. aureus ATCC 25923 [3]; S. aureus 25923 biofilm treated under flow with Omiganan (half MBEC) for 72 h): 8.0 µg/mL
MIC (S. aureus ATCC 25923 [3]; S. aureus 25923 biofilm treated under flow with Retro-Omiganan (half MBEC) for 24 h): 8.0 µg/mL
MIC (S. aureus ATCC 25923 [3]; S. aureus 25923 biofilm treated under flow with Retro-Omiganan (half MBEC) for 48 h): 8.0 µg/mL
MIC (S. aureus ATCC 25923 [3]; S. aureus 25923 biofilm treated under flow with Retro-Omiganan (half MBEC) for 72 h): 8.0 µg/mL
MIC [4, 5]: 8.0 µg/mL
MIC [4, 6]: 8.0 µg/mL
MIC [4, 7]: 8.0 µg/mL
MIC [4, 8]: 8.0 µg/mL
MIC [4, 9]: 8.0 µg/mL
MIC [4, 10]: 8.0 µg/mL
MIC [4, 11]: 16.0 µg/mL
